Reference: patent US10668056B2, “Pharmaceutical composition comprising indole derivatives, process for preparation and use thereof” (VIVOLUX AB, priority 2015, dated 2020)

What was measured:
[1] = system: HeLa (Cervix Adenocarcinoma); assay: FMCA cytotoxicity, HeLa; format: cell-based, human; conditions: Homo sapiens, 72 h
Experimental: (§1) The inventors also set out to characterize activity of the compounds A, B and C in cell lines representing cancer of different origin. The specific assays used and the conclusions from the mechanistic evaluation have previously been described in detail (Zhang et al. 2014). Compounds A, B and C (See FIG. 4) were evaluated for cytotoxicity expressed as survival index (SI) in six human tumor cell lines using the cell based fluorometric micro culture cytotoxicity assay (FMCA) as previously described in detail (Lindhagen et al, 2008). The method is based on measurement of fluorescent fluorescein, generated from hydrolysis of FDA by viable cells with intact plasma membrane. The fluorescence is proportional to the number of intact viable cells.
(§2) The cell lines were cultivated in the respective cell medium recommended by the provider. The medium was supplemented with 10% heat-inactivated fetal bovine serum, 2 mmol/L L-glutamine, 100 μg/mL streptomycin and 100 U/mL penicillin (all from Sigma-Aldrich). The cell line was cultured at 37° C. in a humidified atmosphere containing 5% CO2.
(§3) FMCA analysis in brief, 2500 cells per well were seeded into 384-well microplates and incubated over night before treatment with compounds. Compounds were added using acoustic liquid transfer (Echo 550, LabCyte). The plates were incubated at 37° C. for 72 h, and then washed and FDA was added to the wells followed by 50 min of incubation at 37° C. The fluorescence, which is proportional to the number of living cells in each well, was measured at 485/520 nm in a Fluoroskan instrument (Labsystems, GMI, Ramsey, Minn.). Cell survival is presented as Survival Index (SI), defined as the fluorescence value in the compound-treated wells analysed as percentage of the value in the control wells, with blank values subtracted. Quality criteria included a signal/blank ratio >10 and a coefficient of variation (CV) in control and blank wells <30%. Graph Pad Prism (San Diego, Calif., USA). All experiments were performed twice, and each concentration was evaluated in quadruplicates in each experiment. […]

[2] = system: CCRF-CEM (Acute lymphoblastic leukemia); assay: FMCA cytotoxicity, CCRF-CEM; format: cell-based, human; conditions: Homo sapiens, 72 h
Experimental: as §1, §2, §3

HCT116 (Colon carcinoma) = assay: FMCA cytotoxicity, HCT116; format: cell-based, human; conditions: Homo sapiens, HCT-116, 72 h
Experimental: as §1, §2, §3

[3] = system: HepG2 (Hepatocellular Carcinoma); assay: FMCA cytotoxicity, HepG2; format: cell-based, human; conditions: Homo sapiens, 72 h
Experimental: as §1, §2, §3

RKO (Colon carcinoma) = assay: FMCA cytotoxicity, RKO; format: cell-based, human; conditions: Homo sapiens, 72 h
Experimental: as §1, §2, §3

[4] = system: THP-1 (Acute Monocytic Leukemia); assay: FMCA cytotoxicity, THP-1; format: cell-based, human; conditions: Homo sapiens, 72 h
Experimental: as §1, §2, §3

[5] = system: six human tumor cell lines; assay: FMCA cytotoxicity, six human tumor cell lines (overall); format: cell-based; conditions: Table 6 and FIG. 4
Experimental: as §1, §2, §3

SMILES	IC50 [1]	IC50 [2]	IC50 (HCT116 (Colon carcinoma))	IC50 [3]	IC50 (RKO (Colon carcinoma))	IC50 [4]	activity on cancer cell lines [5]
CC/C(=N\Nc1nnc2c(n1)[nH]c1c(C)cccc12)c1ccccn1 [Compound B, 2-[(1E)-1-(2-{6-methyl-5H-[1,2,4]triazino[5,6-b]indole-3-yl}hydrazin-1-ylidene)propyl]pyridine]	~20000 nM	< 250 nM	~1000 nM	< 250 nM	< 250 nM	< 250 nM	strong activity
Cc1cccc2c1[nH]c1nc(NN=C(CC(C)(C)C)c3ccccn3)nnc12 [Compound C, 2-(3,3-dimethyl-N-{6-methyl-5H-[1,2,4]triazino[5,6-b]indole-3-yl}butanehydrazonoyl)pyridine]	~10000 nM	< 250 nM	~1000 nM	< 250 nM	< 250 nM	< 250 nM	strong activity
